The source made the active and inactive calls.
Experiments:
[1] = target: Sphingosine 1-phosphate receptor 2 (Homo sapiens, UniProt O95136); assay: Late-stage fluorescence-based dose-response cell-based counterscreen assay to identify agonists of the Sphingosine 1-Phosphate Receptor 3 (S1P3): Sphingosine 1-Phosphate Receptor 2 (S1P2) agonist assay.; assay type: functional
[2] = target: T1, Sphingosine 1-phosphate receptor 4 (Homo sapiens, UniProt O95977); assay: Late-stage fluorescence-based dose-response cell-based counterscreen assay to identify agonists of the Sphingosine 1-Phosphate Receptor 3 (S1P3): Sphingosine 1-Phosphate Receptor 4 (S1P4) agonist assay.; assay type: functional
T1 sequence (O95977 whole entry): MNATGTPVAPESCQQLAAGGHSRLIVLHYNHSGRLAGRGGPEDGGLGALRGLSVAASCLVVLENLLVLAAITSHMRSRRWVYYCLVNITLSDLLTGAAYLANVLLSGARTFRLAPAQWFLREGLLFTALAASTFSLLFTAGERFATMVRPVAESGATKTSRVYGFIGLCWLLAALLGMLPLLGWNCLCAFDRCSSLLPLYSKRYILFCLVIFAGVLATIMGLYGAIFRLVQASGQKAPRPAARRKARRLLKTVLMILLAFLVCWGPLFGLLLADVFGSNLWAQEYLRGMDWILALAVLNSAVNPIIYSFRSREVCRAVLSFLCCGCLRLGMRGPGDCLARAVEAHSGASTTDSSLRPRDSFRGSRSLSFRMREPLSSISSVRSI

Insulin-degrading enzyme [3] = target: T2, Insulin-degrading enzyme (Homo sapiens, UniProt P14735); assay: activators of recombinant IDE enzyme, dose response, counter-screen for IDE activator project, biochemical, fluorescence polarization (AID 588681)
T2 sequence (P14735 whole entry): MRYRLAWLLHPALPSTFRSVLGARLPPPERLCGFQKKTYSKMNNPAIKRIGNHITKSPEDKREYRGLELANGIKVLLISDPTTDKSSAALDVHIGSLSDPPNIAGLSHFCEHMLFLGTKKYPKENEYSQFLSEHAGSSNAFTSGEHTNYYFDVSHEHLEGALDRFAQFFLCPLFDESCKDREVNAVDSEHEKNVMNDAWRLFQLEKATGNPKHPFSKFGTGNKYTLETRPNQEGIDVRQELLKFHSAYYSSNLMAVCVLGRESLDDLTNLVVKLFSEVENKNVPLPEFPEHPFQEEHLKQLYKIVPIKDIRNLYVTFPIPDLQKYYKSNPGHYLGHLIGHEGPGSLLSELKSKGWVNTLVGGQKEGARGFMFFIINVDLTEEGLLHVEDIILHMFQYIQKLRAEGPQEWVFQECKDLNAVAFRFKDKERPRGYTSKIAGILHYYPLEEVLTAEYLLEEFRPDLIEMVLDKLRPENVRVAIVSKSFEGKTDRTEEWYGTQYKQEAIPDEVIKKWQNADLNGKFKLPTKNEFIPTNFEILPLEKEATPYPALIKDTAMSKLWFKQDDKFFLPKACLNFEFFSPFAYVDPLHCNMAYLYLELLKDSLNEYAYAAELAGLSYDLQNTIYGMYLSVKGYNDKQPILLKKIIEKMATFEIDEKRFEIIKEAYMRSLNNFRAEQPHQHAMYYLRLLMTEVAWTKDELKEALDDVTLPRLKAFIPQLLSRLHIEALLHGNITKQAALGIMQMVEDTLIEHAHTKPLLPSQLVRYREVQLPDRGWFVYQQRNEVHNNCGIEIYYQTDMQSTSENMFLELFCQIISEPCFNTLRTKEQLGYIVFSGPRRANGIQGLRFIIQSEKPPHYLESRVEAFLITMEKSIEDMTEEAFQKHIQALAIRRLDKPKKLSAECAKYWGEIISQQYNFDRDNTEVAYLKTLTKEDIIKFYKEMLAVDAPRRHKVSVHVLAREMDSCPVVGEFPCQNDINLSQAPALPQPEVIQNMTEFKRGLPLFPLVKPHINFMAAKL

Insulin-degrading enzyme [4] = target: T2, Insulin-degrading enzyme; assay: activators of endogenous IDE in HEK cells, dose response, cell-based, fluorescence polarization (AID 588439); assay type: functional
HEK293 [5] = assay: optical interference in Abeta FP readout, dose response, artefact control for IDE activator project, biochemical, fluorescence polarization (AID 588442); assay type: functional, cell-based; details: Homo sapiens
HEK293 [6] = assay: HEK cell cytotoxicity by LDH release, dose response, cytotoxicity control for IDE activator project, fluorescence, HEK cells (AID 588440); assay type: functional, cell-based; details: Homo sapiens;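 also: cytotoxicity by LDH release measuring loss of membrane integrity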
[7] = target: T3, Sentrin-specific protease 8 (Homo sapiens, UniProt Q96LD8); assay: SENP8 protease inhibitors, SAR follow-up, biochemical, luminescence (AID 504501); assay type: functional
T3 sequence (Q96LD8 whole entry): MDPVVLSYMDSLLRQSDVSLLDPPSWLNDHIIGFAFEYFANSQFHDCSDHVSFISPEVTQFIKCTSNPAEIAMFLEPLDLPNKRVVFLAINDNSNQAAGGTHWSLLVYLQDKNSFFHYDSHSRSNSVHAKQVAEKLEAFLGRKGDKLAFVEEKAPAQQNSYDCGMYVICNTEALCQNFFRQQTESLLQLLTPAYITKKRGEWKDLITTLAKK

[8] = target: T4, Sentrin-specific protease 6 (Homo sapiens, UniProt Q9GZR1); assay: SAR Analysis of small molecule inhibitors of Sentrin-specific protease 6 (SENP6) using a Luminescent assay. [Related pubchem assays (depositor defined):AID2582, AID2599]; assay type: functional
T4 sequence (Q9GZR1 whole entry): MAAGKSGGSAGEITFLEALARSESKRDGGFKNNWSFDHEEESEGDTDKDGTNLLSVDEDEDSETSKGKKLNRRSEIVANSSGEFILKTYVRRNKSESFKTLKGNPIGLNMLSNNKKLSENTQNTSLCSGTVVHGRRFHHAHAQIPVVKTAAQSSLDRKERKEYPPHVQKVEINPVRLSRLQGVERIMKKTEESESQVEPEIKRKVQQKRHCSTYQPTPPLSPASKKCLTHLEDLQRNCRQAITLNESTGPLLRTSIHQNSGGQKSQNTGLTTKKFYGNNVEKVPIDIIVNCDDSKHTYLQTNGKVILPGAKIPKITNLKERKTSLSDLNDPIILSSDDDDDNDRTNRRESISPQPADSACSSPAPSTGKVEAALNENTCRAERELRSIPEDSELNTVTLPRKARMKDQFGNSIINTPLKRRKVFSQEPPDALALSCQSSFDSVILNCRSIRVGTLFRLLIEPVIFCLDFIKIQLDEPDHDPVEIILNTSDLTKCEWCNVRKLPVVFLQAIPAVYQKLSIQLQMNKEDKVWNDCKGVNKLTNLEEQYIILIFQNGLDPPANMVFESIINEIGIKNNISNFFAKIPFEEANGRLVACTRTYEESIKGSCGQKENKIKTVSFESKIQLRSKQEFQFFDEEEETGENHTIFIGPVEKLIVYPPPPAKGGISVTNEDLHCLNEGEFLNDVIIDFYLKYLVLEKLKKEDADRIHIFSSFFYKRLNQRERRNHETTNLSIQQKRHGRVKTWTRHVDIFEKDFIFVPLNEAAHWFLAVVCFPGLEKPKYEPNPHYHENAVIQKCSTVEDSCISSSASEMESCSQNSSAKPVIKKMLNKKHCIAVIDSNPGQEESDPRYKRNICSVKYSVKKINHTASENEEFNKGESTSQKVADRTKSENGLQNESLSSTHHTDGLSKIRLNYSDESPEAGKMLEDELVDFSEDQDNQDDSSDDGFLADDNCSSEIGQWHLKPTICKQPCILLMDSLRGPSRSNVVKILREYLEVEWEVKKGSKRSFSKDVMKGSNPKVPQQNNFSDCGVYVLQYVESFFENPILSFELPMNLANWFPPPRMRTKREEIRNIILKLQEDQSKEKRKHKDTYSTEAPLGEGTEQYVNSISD

Caspase-3 = target: T5, Caspase-3 (Homo sapiens, UniProt P42574); assay: SAR Analysis of small molecule inhibitors of Sentrin-specific proteases (SENPs) using a Caspase-3 Selectivity assay. [Related pubchem assays (depositor defined):AID2540, AID2599, AID434973, AID489001]; assay type: functional
T5 sequence (P42574 whole entry): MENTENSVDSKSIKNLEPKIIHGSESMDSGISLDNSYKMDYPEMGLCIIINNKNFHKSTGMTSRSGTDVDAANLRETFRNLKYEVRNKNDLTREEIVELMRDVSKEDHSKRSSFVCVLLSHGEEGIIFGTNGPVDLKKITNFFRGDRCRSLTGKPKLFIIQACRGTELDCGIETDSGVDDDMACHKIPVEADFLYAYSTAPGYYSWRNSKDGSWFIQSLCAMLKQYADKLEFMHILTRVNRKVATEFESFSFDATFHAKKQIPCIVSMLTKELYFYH

[9] = target: T6, Sentrin-specific protease 7 (Homo sapiens, UniProt Q9BQF6); assay: SENP7 protease inhibitors, SAR follow-up, biochemical, luminescence (AID 504497); assay type: functional
T6 sequence (Q9BQF6 whole entry): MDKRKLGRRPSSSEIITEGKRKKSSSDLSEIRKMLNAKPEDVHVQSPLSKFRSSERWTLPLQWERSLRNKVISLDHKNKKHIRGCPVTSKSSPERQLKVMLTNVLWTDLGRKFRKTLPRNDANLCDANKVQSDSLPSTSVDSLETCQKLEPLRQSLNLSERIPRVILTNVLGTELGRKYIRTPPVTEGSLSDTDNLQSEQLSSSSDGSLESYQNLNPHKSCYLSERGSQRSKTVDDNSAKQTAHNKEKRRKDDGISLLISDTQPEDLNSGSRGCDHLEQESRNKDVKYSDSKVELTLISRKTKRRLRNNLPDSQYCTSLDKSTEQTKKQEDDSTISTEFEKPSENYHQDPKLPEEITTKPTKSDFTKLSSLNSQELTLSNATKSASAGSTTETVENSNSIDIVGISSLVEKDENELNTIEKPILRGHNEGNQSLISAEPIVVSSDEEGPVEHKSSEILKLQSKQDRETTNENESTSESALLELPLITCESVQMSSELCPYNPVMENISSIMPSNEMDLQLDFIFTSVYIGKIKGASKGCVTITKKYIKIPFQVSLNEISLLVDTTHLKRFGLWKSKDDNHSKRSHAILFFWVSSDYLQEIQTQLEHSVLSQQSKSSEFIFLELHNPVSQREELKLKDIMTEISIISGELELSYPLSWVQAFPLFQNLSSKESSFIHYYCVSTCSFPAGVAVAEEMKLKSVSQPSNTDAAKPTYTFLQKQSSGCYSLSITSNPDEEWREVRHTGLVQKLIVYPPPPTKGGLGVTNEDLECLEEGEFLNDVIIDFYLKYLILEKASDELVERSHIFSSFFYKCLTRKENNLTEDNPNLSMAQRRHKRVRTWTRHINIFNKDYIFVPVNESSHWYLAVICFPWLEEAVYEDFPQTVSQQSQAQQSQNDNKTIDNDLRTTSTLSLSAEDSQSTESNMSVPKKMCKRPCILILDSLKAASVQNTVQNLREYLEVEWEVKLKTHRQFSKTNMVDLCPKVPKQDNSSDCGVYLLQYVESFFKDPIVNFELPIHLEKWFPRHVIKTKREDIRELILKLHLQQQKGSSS

Orexin receptor type 2 [10] = target: T7, Orexin receptor type 2 (Homo sapiens, UniProt O43614); assay: Counterscreen assay for antagonists of the orexin 1 receptor (OX1R; HCRTR1): Homogeneous Time Resolved Fluorescence (HTRF)-based cell-based dose response assay for antagonists of the orexin 2 receptor (OX2R; HCRTR2), run by assay provider.; assay type: functional
T7 sequence (O43614 whole entry): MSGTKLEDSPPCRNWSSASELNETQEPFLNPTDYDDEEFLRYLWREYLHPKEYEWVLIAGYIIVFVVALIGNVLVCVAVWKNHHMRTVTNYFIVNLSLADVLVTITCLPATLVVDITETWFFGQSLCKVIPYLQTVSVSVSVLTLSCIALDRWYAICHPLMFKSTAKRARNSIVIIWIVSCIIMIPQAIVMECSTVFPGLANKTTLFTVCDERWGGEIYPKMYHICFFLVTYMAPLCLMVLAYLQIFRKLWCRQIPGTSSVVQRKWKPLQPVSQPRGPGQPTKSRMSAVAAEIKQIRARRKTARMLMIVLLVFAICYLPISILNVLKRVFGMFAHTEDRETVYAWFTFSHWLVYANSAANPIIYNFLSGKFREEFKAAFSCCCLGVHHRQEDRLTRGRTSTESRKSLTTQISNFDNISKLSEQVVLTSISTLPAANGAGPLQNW

[11] = target: T8, Polyadenylate-binding protein 1 (Homo sapiens, UniProt P11940); assay: PABP1 MLLE–PAM2 binding inhibitor potency, dose response, biochemical, fluorescence polarization, FITC-PAM2 peptide (AID 602259); assay type: functional; details: read-out: IC50_Mean
T8 sequence (P11940 whole entry): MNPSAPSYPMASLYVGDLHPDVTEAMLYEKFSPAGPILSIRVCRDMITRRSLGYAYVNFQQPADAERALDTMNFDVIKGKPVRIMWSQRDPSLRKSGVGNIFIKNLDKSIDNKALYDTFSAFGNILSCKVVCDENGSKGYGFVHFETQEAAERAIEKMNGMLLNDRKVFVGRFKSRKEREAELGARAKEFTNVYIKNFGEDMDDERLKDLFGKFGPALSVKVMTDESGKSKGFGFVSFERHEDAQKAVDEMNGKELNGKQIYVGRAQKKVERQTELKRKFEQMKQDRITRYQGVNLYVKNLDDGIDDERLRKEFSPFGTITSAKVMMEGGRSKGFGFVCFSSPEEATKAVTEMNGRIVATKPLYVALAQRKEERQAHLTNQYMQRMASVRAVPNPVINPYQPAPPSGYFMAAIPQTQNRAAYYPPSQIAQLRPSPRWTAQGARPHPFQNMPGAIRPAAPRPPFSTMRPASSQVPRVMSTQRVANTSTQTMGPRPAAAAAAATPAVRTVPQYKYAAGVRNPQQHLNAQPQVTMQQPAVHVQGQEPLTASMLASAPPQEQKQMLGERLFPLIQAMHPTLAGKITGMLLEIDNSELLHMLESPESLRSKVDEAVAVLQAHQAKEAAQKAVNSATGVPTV

[12] = target: T9, Orexin/Hypocretin receptor type 1 (Homo sapiens, UniProt O43613); assay: (§1) Fluorescence-based cell-based high throughput dose response assay for antagonists of the orexin 1 receptor (OX1R; HCRTR1). [Related pubchem assays (depositor defined):AID434989, AID435008, AID463079, AID485270, AID492963, AID492964, AID492965, AID493232, AID504717, AID504718]; assay type: functional
T9 sequence (O43613 whole entry): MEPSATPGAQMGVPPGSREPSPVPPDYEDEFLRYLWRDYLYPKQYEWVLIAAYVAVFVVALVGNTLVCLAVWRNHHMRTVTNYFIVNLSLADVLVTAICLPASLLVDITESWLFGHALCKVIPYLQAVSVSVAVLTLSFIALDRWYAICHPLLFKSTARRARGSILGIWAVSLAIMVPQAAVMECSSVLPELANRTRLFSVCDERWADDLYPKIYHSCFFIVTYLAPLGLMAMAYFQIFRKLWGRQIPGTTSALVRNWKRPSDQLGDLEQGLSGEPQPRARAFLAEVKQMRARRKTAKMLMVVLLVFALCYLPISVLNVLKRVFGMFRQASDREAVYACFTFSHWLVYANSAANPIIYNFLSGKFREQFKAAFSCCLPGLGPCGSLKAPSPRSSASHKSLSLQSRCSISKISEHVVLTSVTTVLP

[13] = (§2) Counterscreen for antagonists of the orexin 1 receptor (OX1R; HCRTR1): Fluorescence-based cell-based high throughput dose response assay to identify antagonists of the parental CHO cell line. [Related pubchem assays (depositor defined):AID434989, AID435008, AID463079, AID485270, AID492963, AID492964, AID492965, AID493232, AID504699, AID504701]; assay type: functional
[14] = target: T10, RNA-binding protein pos-1 (Caenorhabditis elegans, UniProt G5EF15); assay: inhibitors of POS-1/mex-3 RNA binding, dose response, biochemical, fluorescence polarization (AID 1964);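 also: purified POS-1 fused to maltose binding protein made in E. coli; potency of compounds blocking POS-1 binding to fluorescent RNA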
T10 sequence (G5EF15 whole entry): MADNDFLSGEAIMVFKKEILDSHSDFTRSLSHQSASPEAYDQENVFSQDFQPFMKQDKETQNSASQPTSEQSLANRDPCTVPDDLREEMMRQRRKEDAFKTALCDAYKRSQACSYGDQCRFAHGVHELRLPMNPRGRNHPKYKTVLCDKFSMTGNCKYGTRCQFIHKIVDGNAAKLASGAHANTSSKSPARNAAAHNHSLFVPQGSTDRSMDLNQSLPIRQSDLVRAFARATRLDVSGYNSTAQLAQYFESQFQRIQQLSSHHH

Orexin receptor type 2 [15] = target: T7, Orexin receptor type 2; assay: Counterscreen assay for antagonists of the orexin 1 receptor (OX1R; HCRTR1): Fluorescence-based cell-based dose response assay for antagonists of the orexin 2 receptor (OX2R; HCRTR2), run by assay provider.; assay type: functional
CHO-K1 = assay: as §2, with “Homogeneous time resolved fluorescence (HTRF)-based” for “Fluorescence-based”, “cell-based” for “cell-based high throughput”, “CHO-K1” for “CHO”; assay type: functional; details: Cricetulus griseus;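 also: potency for inhibition of ATP-stimulated IP1 production as antagonists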
[16] = target: T9, Orexin/Hypocretin receptor type 1; assay: as §1, with “Homogeneous Time Resolved Fluorescence (HTRF)-based” for “Fluorescence-based”; assay type: functional
[17] = target: T8, Polyadenylate-binding protein 1; assay: PABP1 MLLE–PAM2 interaction inhibitors, dose response, miRNA deadenylation inhibitor project, biochemical, fluorescence polarization, Cy5-PAM2 peptide, secondary (AID 602260); assay type: functional; details: read-out: IC50_Mean
[18] = target: T11, Zinc finger protein mex-5 (Caenorhabditis elegans, UniProt Q9XUB2); assay: MEX-5/TCR-2 RNA interaction inhibitors, dose response, biochemical, C. elegans, fluorescence polarization (AID 1960)
T11 sequence (Q9XUB2 whole entry): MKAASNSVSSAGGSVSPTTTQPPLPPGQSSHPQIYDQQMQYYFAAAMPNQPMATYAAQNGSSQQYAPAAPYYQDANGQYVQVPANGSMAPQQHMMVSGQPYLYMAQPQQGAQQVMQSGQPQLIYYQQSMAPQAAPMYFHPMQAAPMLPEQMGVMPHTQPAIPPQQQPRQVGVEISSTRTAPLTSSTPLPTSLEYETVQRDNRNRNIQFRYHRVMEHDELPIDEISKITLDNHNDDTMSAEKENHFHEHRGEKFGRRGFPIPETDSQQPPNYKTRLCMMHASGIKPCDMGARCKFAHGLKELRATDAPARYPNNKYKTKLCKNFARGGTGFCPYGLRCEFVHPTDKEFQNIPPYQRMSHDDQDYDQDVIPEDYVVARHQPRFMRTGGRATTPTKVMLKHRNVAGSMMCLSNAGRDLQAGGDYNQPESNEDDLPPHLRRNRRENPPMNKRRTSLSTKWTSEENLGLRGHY

[19] = target: ALK tyrosine kinase receptor (Homo sapiens, UniProt Q9UM73); assay type: functional;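 also: ALK tested as one member of a kinase panel screen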
ALK tyrosine kinase receptor, sequence (Q9UM73 whole entry): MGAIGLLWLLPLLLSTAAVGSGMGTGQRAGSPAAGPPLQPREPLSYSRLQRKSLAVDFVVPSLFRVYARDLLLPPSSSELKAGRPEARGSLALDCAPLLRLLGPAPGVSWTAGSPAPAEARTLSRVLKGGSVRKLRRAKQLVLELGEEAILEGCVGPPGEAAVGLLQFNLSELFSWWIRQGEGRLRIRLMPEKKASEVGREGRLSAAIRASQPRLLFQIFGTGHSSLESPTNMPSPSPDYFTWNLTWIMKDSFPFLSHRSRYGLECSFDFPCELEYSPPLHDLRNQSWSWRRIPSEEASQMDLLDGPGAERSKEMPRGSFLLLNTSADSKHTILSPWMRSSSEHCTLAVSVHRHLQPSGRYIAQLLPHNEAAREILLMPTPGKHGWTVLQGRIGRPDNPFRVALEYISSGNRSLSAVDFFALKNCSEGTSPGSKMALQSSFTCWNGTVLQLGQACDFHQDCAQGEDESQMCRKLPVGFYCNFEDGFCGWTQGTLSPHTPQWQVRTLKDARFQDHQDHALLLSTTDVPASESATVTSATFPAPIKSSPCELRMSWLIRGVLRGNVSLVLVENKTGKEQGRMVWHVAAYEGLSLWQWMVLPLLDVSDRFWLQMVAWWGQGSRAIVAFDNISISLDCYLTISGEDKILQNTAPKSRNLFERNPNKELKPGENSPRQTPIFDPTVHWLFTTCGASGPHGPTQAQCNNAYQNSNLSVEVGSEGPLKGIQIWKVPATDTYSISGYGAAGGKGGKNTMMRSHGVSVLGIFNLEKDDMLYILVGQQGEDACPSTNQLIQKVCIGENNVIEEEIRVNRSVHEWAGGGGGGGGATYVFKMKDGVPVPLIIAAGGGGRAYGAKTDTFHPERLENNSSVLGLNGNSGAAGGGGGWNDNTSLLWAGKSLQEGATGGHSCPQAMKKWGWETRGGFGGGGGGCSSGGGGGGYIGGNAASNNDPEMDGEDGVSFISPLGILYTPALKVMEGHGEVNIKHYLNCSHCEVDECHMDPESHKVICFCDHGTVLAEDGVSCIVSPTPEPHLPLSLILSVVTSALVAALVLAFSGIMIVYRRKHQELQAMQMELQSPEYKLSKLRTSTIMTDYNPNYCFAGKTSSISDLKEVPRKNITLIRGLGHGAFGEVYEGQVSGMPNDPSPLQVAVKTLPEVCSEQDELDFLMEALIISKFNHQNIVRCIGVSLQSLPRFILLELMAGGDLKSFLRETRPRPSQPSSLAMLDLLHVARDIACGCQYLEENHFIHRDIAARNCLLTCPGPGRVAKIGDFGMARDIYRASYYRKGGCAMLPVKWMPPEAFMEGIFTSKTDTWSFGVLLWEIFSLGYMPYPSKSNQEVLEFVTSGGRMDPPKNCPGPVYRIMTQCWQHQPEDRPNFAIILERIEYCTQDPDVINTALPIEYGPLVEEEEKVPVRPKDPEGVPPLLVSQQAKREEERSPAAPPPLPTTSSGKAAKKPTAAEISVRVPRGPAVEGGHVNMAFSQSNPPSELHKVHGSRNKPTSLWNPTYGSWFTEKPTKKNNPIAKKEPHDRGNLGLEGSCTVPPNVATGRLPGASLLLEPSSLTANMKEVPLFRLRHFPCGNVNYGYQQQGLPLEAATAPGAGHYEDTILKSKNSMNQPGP

[20] = target: Cell division cycle 7-related protein kinase (Homo sapiens, UniProt O00311); assay type: functional;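 also: value obtained from a kinome-wide kinase panel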
Cell division cycle 7-related protein kinase, sequence (O00311 whole entry): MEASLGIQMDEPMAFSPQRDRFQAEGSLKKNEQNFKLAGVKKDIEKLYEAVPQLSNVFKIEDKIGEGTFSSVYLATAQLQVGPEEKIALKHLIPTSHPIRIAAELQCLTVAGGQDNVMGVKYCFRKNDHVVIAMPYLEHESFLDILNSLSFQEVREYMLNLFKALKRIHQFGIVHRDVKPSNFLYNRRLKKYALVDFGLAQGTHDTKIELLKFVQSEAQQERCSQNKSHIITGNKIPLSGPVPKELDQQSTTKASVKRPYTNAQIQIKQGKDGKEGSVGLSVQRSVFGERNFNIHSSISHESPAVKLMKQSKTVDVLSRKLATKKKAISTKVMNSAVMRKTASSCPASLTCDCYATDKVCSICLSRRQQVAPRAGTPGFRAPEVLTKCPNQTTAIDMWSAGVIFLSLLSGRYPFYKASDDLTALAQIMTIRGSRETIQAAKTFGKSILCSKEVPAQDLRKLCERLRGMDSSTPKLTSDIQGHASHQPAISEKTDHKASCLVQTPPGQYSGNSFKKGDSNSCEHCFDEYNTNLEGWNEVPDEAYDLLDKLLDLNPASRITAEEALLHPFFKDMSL

Sphingosine 1-phosphate receptor 2, sequence (O95136 whole entry): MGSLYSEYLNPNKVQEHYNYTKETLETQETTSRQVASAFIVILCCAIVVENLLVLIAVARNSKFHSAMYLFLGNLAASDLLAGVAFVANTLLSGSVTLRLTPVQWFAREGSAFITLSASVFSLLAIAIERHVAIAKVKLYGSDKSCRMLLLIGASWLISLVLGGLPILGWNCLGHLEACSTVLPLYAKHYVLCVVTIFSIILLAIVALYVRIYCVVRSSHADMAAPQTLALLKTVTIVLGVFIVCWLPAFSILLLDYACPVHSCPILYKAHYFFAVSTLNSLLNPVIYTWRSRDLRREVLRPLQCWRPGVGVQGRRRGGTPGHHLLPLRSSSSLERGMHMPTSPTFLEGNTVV

With `Cc1cc(C(=O)N(C2CCCCC2)C2CCCCC2)no1` the EC50 [1] was > 50 µM (inactive) and the EC50 [2] was > 50 µM (inactive).

For `CC(C)CCn1nnnc1CN1CCN(c2ccccc2)CC1`, the EC50 (Insulin-degrading enzyme [3]) was 29.8 µM (inactive), the EC50 (Insulin-degrading enzyme [4]) was 32.3 µM (inactive) and the EC50 (HEK293 [5]) was > 55.9 µM (inactive). The IC50 (HEK293 [6]) was > 89.1 µM (inactive).

For `CC1CC(C)CN(S(=O)(=O)c2ccc(C(=O)Nc3nc4ccc(C(C)C)cc4s3)cc2)C1` (configuration not stated), the IC50 [7] was > 99 µM (inactive), the IC50 [8] was > 99 µM (inactive) and the IC50 (Caspase-3) was > 99 µM (inactive). The IC50 [9] was > 99 µM (inactive).

In the case of `COc1ccc(/C=c2\sc3nc(-c4ccccc4OC)nn3c2=O)c(OC)c1`, the IC50 (Orexin receptor type 2 [10]) is reported as > 50 µM (inactive), the IC50 [11] is reported as 48.3 µM (inactive) and the IC50 [12] is reported as 0.526 µM (active). The IC50 [13] was > 49.8 µM (inactive), the EC50 [14] was 21.5 µM (active) and the IC50 (Orexin receptor type 2 [15]) was 33.5 µM (inactive). The IC50 (CHO-K1) was > 66.2 µM (inactive), the IC50 [16] was 0.723 µM (active) and the IC50 [17] was > 66 µM (inactive). The EC50 [18] was 31.4 µM (active).

For `CS(=O)(=O)c1ccccc1Nc1nc(Nc2ccccc2)ncc1Cl`, the Ki [19] was 0.316 µM (active) and the Ki [20] was > 3.98 µM (inactive).
